Patent US20240277637A1, “CAPSAICIN DERIVATIVES IN THE TREATMENT OF IDIOPATHIC PULMONARY FIBROSIS” (aXichem AB, priority 2021, published 2024)

Legend:
Type in all cases: cell-based
[1] = test system: human bronchial epithelial cells; experiment: Clonogenic cell survival assay, bronchial epithelial cells with PDGF-AB (Example 3); conditions: 10 ng/ml PDGF-AB, 14 days; for effect on clonogenic survival / PDGF inhibition (words): 0-10 μM
Experimental: (§1) Primary isolated human bronchial epithelial cells (NHBE) were used in this assay sourced from the American Tissue Culture Collection (Normal, Human (ATCC® BEAS-2B™)) and were cultured up to passage 6. […].
A clonogenic cell survival assay determines the ability of a cell to proliferate indefinitely. Cells were plated with increasing numbers (102 to 5×10^4) in 25 cm^2 flasks. SU9518, SU9518, a known inhibitor PDGF that has shown the ability to reduce radiation-induced fibroblast and endothelial cell activation, and phenylcapsaicin were used as positive controls. The cells were incubated with 0-10 μM (3% DMSO aqueous) of phenylcapsaicin, SU9518, and compounds 1 and 3-7 separately in the presence of 10 ng/ml PDGF-AB (Sigma Aldrich). The flasks were returned to the incubator for 14 days, after which they were stained with crystal violet (Sigma Aldrich). The colonies were counted and the surviving percentage was determined for clonogenic survival after correcting for plating efficiency.

[2] = test system: human bronchial epithelial cells; experiment: Clonogenic cell survival assay, bronchial epithelial cells with PDGF-AB (Example 4); conditions: 10 ng/ml PDGF-AB, 14 days; for effect on clonogenic survival / PDGF inhibition (words): 0-10 μM
Experimental: as §1
The effects of Phenylcapsaicin (2) on clonogenic survival of bronchial epithelial cells, by plating the cells with increasing numbers (102 to 5×104) in 25 cm^2 flasks were investigated. SU9518* and Phenylcapsaicin were used as positive controls. The cells were incubated with 0-10 μM (3% DMSO aqueous) of Phenylcapsaicin, SU9518, and compounds 8-12 separately in the presence of 10 ng/ml PDGF-AB (Sigma Aldrich). The flasks were returned to the incubator for 14 days, after which they were stained with crystal violet (Sigma Aldrich). The colonies were counted and the surviving percentage was determined for clonogenic survival after correcting for plating efficiency. The synthetic analogs were all calculated at 100% purity for molar concentrations.

[3] = test system: human corneal epithelial cells; experiment: Clonogenic cell survival assay, corneal epithelial cells with PDGF-AB (Example 1); conditions: 10 ng/ml PDGF-AB, 14 days
Experimental: Primary isolated human corneal epithelial cells; Normal, Human cells (ATCC® PCS-700-010™) were maintained in culture at 37° C. with 5% CO2 and 95% humidity in serum reduced (5% fetal calf serum) modified promocell media (MPM) supplemented with 4 ng/ml fibronectin (FN), 2 ng/ml human recombinant vascular endothelial growth factor (VEGF) and 4 ng/ml basic fibroblast growth factor (bFGF).
A clonogenic cell survival assay determines the ability of a cell to proliferate indefinitely. The effects of phenylcapsaicin (2) on clonogenic survival of corneal epithelial cells was investigated by plating the cells with increasing numbers (102 to 5×104) in 25 cm^2 flasks. SU9518, a known inhibitor PDGF that has shown the ability to reduce radiation-induced fibroblast and endothelial cell activation, was used as the positive control. The cells were incubated with 0-10 μM of phenylcapsaicin and SU9518 separately in the presence of 10 ng/ml PDGF-AB. The flasks were returned to the incubator for 14 days, after which they were stained with crystal violet. The colonies were counted, and the surviving

[4] = test system: human bronchial epithelial cells; experiment: Clonogenic cell survival assay, bronchial epithelial cells with PDGF-AB (Example 2); conditions: 10 ng/ml PDGF-AB, 14 days
Experimental: Primary isolated human bronchial epithelial cells (NHBE) (Normal, Human (ATCC® BEAS-2B™)) were cultured up to passage 6. […].
A clonogenic cell survival assay determines the ability of a cell to proliferate indefinitely. The effects of phenylcapsaicin on clonogenic survival of bronchial epithelial cells was investigated by plating the cells with increasing numbers (10^2 to 5×10^4) in 25 cm^2 flasks. SU9518, a known inhibitor for PDGF which has shown the ability to reduce radiation-induced fibroblast and endothelial cell activation, was used as the positive control. The cells were incubated with 0-10 μM of phenylcapsaicin and SU9518 separately in the presence of 10 ng/ml PDGF-AB. The flasks were returned to the incubator for 14 days, after which they were stained with crystal violet. The colonies were counted, and the surviving percentage was determined for clonogenic survival after correcting for plating efficiency.

Structure (SMILES) | effect on clonogenic survival / PDGF inhibition (words) [2] | Clonogenic Survival Assay (percent) ([2]; 0.10 uM) [%] | Clonogenic Survival Assay (percent) ([2]; 0.50 uM) [%] | Clonogenic Survival Assay (percent) ([2]; 1.00 uM) [%] | Clonogenic Survival Assay (percent) ([2]; 2.00 uM) [%] | Clonogenic Survival Assay (percent) ([2]; 5.00 uM) [%] | Clonogenic Survival Assay (percent) ([2]; 10.00 uM) [%] | other results
COc1cc(CNC(=O)CCCC/C=C/C(C)C)ccc1O [Compound 1, capsaicin] | no inhibition of PDGF was observed | 97 | 98 | 95 | 96 | 96 | 95 | effect on clonogenic survival / PDGF inhibition (words) [1]: did not show any PDGF inhibition; effect on clonogenic survival / PDGF inhibition (words) ([1]; listed as capsaicin): no inhibition of PDGF was observed; Clonogenic Survival Assay (percent) ([1]; 0.10 μM): 97%; Clonogenic Survival Assay (percent) ([1]; 0.50 μM): 97%; Clonogenic Survival Assay (percent) ([1]; 1.00 μM): 95%; Clonogenic Survival Assay (percent) ([1]; 2.00 μM): 96%; Clonogenic Survival Assay (percent) ([1]; 5.00 μM): 96%; Clonogenic Survival Assay (percent) ([1]; 10.00 μM): 95%; Clonogenic Survival Assay (percent) ([1]; 10.00 μM, listed as capsaicin): 95%
COc1cc(CNC(=O)CCCCCCc2ccccc2)ccc1O [Compound 8, N-[(4-Hydroxy-3-methoxyphenyl)methyl]7-phenylheptanamide] | did not show any reduction in clonogenic cell survival | 97 | 100 | 97 | 95 | 96 | 97 | 
C#CCCCCC(=O)NCc1ccc(O)c(OC)c1 [Compound 9] | did not show any reduction in clonogenic cell survival | 100 | 97 | 99 | 96 | 96 | 99 | 
COc1cc(CNC(=O)CCCCC#Cc2ccc([N+](=O)[O-])cc2)ccc1O [Compound 10, N-[(4-Hydroxy-3-methoxyphenyl)methyl]-7-(p-nitrophenyl)-6-heptynamide] |  | 73 | 55 | 51 | 40 | 41 | 39 | 
COc1ccc(C#CCCCCC(=O)NCc2ccc(O)c(OC)c2)cc1 [Compound 11, N-[(4-Hydroxy-3-methoxyphenyl)methyl]-7-(p-methoxyphenyl)-6-heptynamide] | higher reduction than the lead phenylcapsaicin | 72 | 57 | 51 | 33 | 28 | 21 | effect on clonogenic survival / PDGF inhibition (words) ([2]; listed as compound 11): further improved
COc1cc(CNC(=O)CCCCC#Cc2cccc3ccccc23)ccc1O [Compound 12, N-[(4-Hydroxy-3-methoxyphenyl)methyl]-7-(1-naphthyl)-6-heptynamide] |  | 81 | 79 | 61 | 53 | 48 | 32 | 
Cc1[nH]c(/C=C2\C(=O)Nc3ccc(Br)cc32)c(C)c1CCC(=O)O [SU9518, reference compound] |  | 80 | 65 | 59 | 41 | 33 | 22 | effect on clonogenic survival ([3]; 0-10 μM): dose dependent reduction in cell survival; surviving fraction of epithelial cells ([3]; 5 μM): 30%; Clonogenic Survival Assay (percent) ([1]; 0.10 μM): 80%; Clonogenic Survival Assay (percent) ([1]; 0.50 μM): 65%; Clonogenic Survival Assay (percent) ([1]; 1.00 μM): 59%; Clonogenic Survival Assay (percent) ([1]; 2.00 μM): 41%; Clonogenic Survival Assay (percent) ([1]; 5.00 μM): 33%; Clonogenic Survival Assay (percent) ([1]; 10.00 μM): 22%; effect on clonogenic survival ([4]; 0-10 μM): dose dependent reduction in cell survival; surviving fraction of epithelial cells ([4]; 5 μM): 33%
